According to patent US12544348B2, “Methods for treating APOE4/4-associated disorders” (The Regents of the University of California, priority 2018, dated 2026):

System: apoE4/4-iPSC-derived human neurons
Assay: RNA-Seq analysis of apoE4/4-iPSC-derived human neurons
Type: cell-based
Conditions: 10 μM, 6 hours
Excerpt: Neuronal Differentiation of Human apoE4/4-iPSCs. Human iPS lines were generated from skin fibroblasts of a subject with apoE4/4 genotype and were maintained under feeder-free conditions in mTeSR1 medium (STEMCELL Technologies). Human apoE4/4-iPSCs were routinely passaged at 1:2-1:4 by brief treatment with Accutase (Millipore) and scraping. The human iPSC protocol was approved by the Committee on Human Research at the University of California. The apoE4/4-iPSCs were differentiated into neurons as reported with modifications. iPSCs were treated with collagenase IV (Stem Cell Technologies) and grown in suspension as embryoid bodies in hES medium without bFGF. The medium was replaced every day for 5 days. On day 5, embryoid bodies were grown in Neural Induction Medium containing Dulbecco's modified Eagle's medium/F12 and Neurobasal Medium (1:1, Thermo Fisher), 1% N2 Supplement (Life Technologies), 1% B27 Supplement (Life Technologies), nonessential amino acids, and 0.5% penicillin/streptomycin (Life Technologies) supplemented with inhibitors of the TGF-β receptor (SB431542, Stemgent; 5 μM) and the bone morphogenetic protein receptor (LDN-193189, Stemgent; 0.25 μM). On day 7, spheres were transferred to wells coated with Matrigel (BD Biosciences) and grown in Neural Progenitor Medium, which consisted of Neural Induction Medium without SB and LDN, but containing 10 ng/ml bFGF (PeproTech), 10 ng/ml epidermal growth factor (EGF) (PeproTech), and 2 μg/ml heparin (Sigma). Attached neuroepithelial cells were fed every other day for 7 days. Neural rosette structures appeared by around day 15, were lifted off the plate, and grown in suspension in Neural Progenitor Medium to form neurospheres. For neuronal differentiation, neurospheres were dissociated with Accutase and plated on culture plates coated with 100 μg/ml poly-1-ornithine (Sigma) and 10 μg/ml laminin (Sigma). Neuronal cultures were maintained in Neural Differentiation Medium consisting of Neural Progenitor Medium, brain-derived neurotrophic factor (10 ng/ml; PeproTech), and glial cell-derived growth factor (10 ng/ml; PeproTech) without bFGF, EGF, or heparin. Neurons were observed after several days and were further differentiated for 30 days or longer. Most of the experiments were performed on the neuronal culture differentiated beyond 8 weeks. This culture condition generated neuronal cells with 75±4% vGLUT^+ total glutamatergic excitatory neurons, 15±3% GABA^+ GABAergic inhibitory neurons, and 5±2% TH^+ dopaminergic neurons. RNA-Seq Analysis of Human ApoE4/4-iPS-derived Neurons. Total RNA was extracted and purified from apoE4/4-iPSC-derived human neurons with the Qiagen RNeasy Micro kit, which included a DNase treatment. cDNA was generated from full-length RNA (50 ng per sample) with the NuGEN RNA-Seq V2 kit, which uses the single primer isothermal amplification method to deplete ribosomal RNA, and sheared by Covaris to yield fragments of uniform size. The NuGen Ultralow system V2 was used for adding adapters and for barcoding and amplification. The resulting RNA libraries were purified with Agencourt XP magnetic beads, and quantified by qPCR after quality control with an Agilent Bioanalyzer. The libraries were pooled and sequenced with a HiSeq 4000 instrument (Illumina) for single-end (SE50) sequencing. Sequence data were aligned with the STAR short read aligner and counts per feature were obtained with the featureCounts function from the Subread package. […]

[1] = vs vehicle, P<0.05 by Monte Carlo Simulation

CCCCNc1cc(C(=O)O)cc(S(N)(=O)=O)c1Oc1ccccc1 [bumetanide, 3-(butylamino)-4-phenoxy-5-sulfamoylbenzoic acid]
number of pathways also shared with the apoE4/4 AD signature from humans: 4 | number of pathways overlapping with mouse hippocampal neuronal cells exhibiting the predicted drug effect: 14 | number of significantly perturbed pathways: 27 | shift in FC rank of genes downregulated in apoE4/4 AD [1]: shifted upward towards lower rank numbers | shift in FC rank of genes upregulated in apoE4/4 AD [1]: shifted downward towards higher rank numbers
